Measured values: ChEMBL document CHEMBL1152770, “Inhibitors of hepatitis C virus polymerase: synthesis and biological characterization of unsymmetrical dialkyl-hydroxynaphthalenoyl-benzothiadiazines” (J Med Chem, 2009)

Assays:
Hepatitis C virus [1] = assay: Antiviral activity against HCV 1a containing chimeric genotype 1a-H77/1b-con1 subgenom in human Huh7 cells assessed as reduction in viral RNA after 4 days by RT-PCR; conditions: subtype 1a, Huh-7, 96 h
Hepatitis C virus [2] = assay: Antiviral activity against HCV genotype 1 infected in human assessed as reduction in viral titer after 48 hrs; format: functional, Hepacivirus hominis
Hepatitis C virus [3] = assay: Antiviral activity against HCV isolate Con1 in human Huh7 cells assessed as reduction in viral RNA after 4 days by RT-PCR; conditions: isolate Con1, Huh-7, 96 h
Nucleic Acid [4] = assay: Ratio of drug level in rat liver after 6 hrs to EC50 for HCV isolate Con1 in presence of 40% human serum; format: tissue-based
Nucleic Acid [5] = assay: Ratio of drug level in rat liver after 12 hrs to EC50 for HCV isolate Con1 in presence of 40% human serum; format: tissue-based

| SMILES | EC50 (Hepatitis C virus [1]) [nM] | Activity (Hepatitis C virus [2]) | EC50 (Hepatitis C virus [3]) [nM] | Ratio (Nucleic Acid [4]) | Ratio (Nucleic Acid [5]) |
| --- | --- | --- | --- | --- | --- |
| COc1ccc2c(O[C@@H]3C[C@H]4C(=O)N[C@]5(C(=O)O)C[C@H]5/C=C\CCCCC[C@H](NC(=O)OC5CCCC5)C(=O)N4C3)cc(-c3csc(NC(C)C)n3)nc2c1 | 3 | 2 | 3 | – | – |
| CC(C)(C)CC[C@@]1(C)C(=O)C(C2=NS(=O)(=O)c3cc(NS(C)(=O)=O)ccc3N2)=C(O)c2ccccc21 | – | – | – | 1400 | 270 |
